Experimental data published in PubChem BioAssay (NCI).
Where “and” joins values, the source holds several entries; their conditions need not be identical. Identical values can stand only once.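 Grown in 96-well plates, cells were treated for 48 hours with each compound at five concentrations. Insufficient inhibition: endpoint recorded as highest concentration tested. GI50: concentration for 50% inhibition of growth. At the TGI there is no net growth.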 *1 amine or outer side, *2 acyl side, *3 side chain or, on linkers, in order; H or OH if unused. Where a SMILES comes first, the peptide text is derived from it. Bridges are numbered along the chain shown (N, C = ends). [ ]: non-standard residue; d: D form. The star is where a group is joined. ξ: configuration not given here. Phe(3,5-F2) = N[C@@H](Cc1cc(F)cc(F)c1)C(=O)O; ξThr(3S) = C[C@H](O[*:3])C(N[*:1])C(=O)[*:2]; Pro(4R-Me) = C[C@H]1CN[C@H](C(=O)O)C1; Pip = O=C(O)[C@@H]1CCCCN1; X1 = Cc1ccc(N*)c(F)c1; CO = O=C([*:1])[*:2]

The compounds below were run on MDA-MB-468 breast (assay: NCI-60 cell line screen, 48 h).
Cc1ccc(-c2nnc(SCc3ccc(O)c4ncccc34)o2)cc1 was tested, and the GI50 was 1.88 µM and the TGI was over 100 µM. CN(C)CCN1C(=O)c2cccc3cc(N)cc(c23)C1=O gave a GI50 of 2.95 µM and a TGI of 11.9 µM. CCCCCCCCCCCC1=NC(C)(C)CN1C(C)C showed a GI50 of 1.66 µM and a TGI of 3.8 µM. Work on CCN(Cc1ccccc1)c1ccc(/C=C2\COc3ccccc3C2=O)cc1 yielded a GI50 of 438 µM and a TGI of over 1000 µM. In the case of CC[C@@H]1C(=O)N(C)c2cnc(Nc3ccc(C(=O)NC4CCC(N5CCN(CC6CC6)CC5)CC4)cc3OC)nc2N1C(C)C (some centres not stated), the GI50 was 0.00331 µM and < 0.01 µM and the TGI was 0.121 µM. Compound Cc1[nH]nc2ncc(C#Cc3cncc(C(=O)Nc4ccc(CN5CCN(C)CC5)c(C(F)(F)F)c4)c3)cc12 has a GI50 of 0.141 µM and a TGI of 0.911 µM. Cc1ccc(NC(=O)N[C@@H](Cc2cc(F)cc(F)c2)C(=O)NC2C(=O)N3CCC[C@H]3C(=O)N3CCCC[C@H]3C(=O)N[C@@H](C)C(=O)N3C[C@H](C)C[C@H]3C(=O)O[C@H]2C)c(F)c1 (stereo partly drawn) ({X1-CO}-[Phe(3,5-F2)][ξThr(3S)]P[Pip]A[Pro(4R-Me)]; ester 2-C) was tested, and the GI50 was 0.174 µM and 0.0874 µM. Work on COCCn1c(Nc2ccc(C(=O)NO)cc2)nc2ccccc21 yielded a GI50 of 3.43 µM and a TGI of 16 µM. With Clc1ccc2c(NCCCCNc3nc(N4CCOCC4)nc4ccccc34)ccnc2c1 the GI50 was 2.82 µM and the TGI was 7.97 µM. N#CSc1c[nH]c2ccc(/C=C/C(=O)/C=C(O)/C=C/c3ccc4[nH]cc(SC#N)c4c3)cc12 gave a GI50 of 2.06 µM and a TGI of 6.67 µM. With C#C[C@]1(O)CC[C@H]2[C@@H]3CC=C4c5sc(Nc6cc(C)cc(C)c6)nc5CC[C@]4(C)[C@H]3CC[C@@]21C the GI50 was 2.54 µM and the TGI was 8.69 µM. With CCCN1CCC(Oc2cc(Nc3nc(Nc4cccc(F)c4C(N)=O)c4cc[nH]c4n3)c(OC)cc2Cl)CC1 the GI50 was 0.537 µM and the TGI was 1.35 µM. For O=C(O)CN(CCN(CC(=O)O)CC(=O)O)CCN(CC(=O)O)CC(=O)O, the GI50 was 4.03 µM and the TGI was 16.4 µM. In the case of CCn1c(-c2nonc2N)nc2cnc(Oc3cccc(NC(=O)c4ccc(OCCN5CCOCC5)cc4)c3)cc21, the GI50 was 1.13 µM and the TGI was 19.9 µM. CN1CCN(c2ccc3nc(-c4[nH]ncc4Nc4ncnc5[nH]ccc45)[nH]c3c2)CC1 was tested, and the GI50 was 0.197 µM and the TGI was 0.487 µM. Clc1ccc2c(NC3CCC(NC4CCCCC4)CC3)ccnc2c1 (configuration not stated) was tested, and the GI50 was 1.68 µM and the TGI was 8.1 µM. With C=CCn1c(SCC(=O)Nc2ccc(C(=O)/C=C/c3cc(OC)c(OC)c(OC)c3)cc2)nnc1-c1cc(OC)c(OC)c(OC)c1 the GI50 was 2.45 µM and the TGI was 6.66 µM. Cc1ccc(NC(=O)c2ccoc2)cc1-c1ccc(C(=O)NCC2CC2)cc1 showed a GI50 of 6.37 µM and a TGI of over 25 µM. With COc1ccc(-c2nc(-c3nc4cc(Cl)c(Cl)cc4[nH]3)c3ccccn23)cc1 the GI50 was 5.04 µM and the TGI was over 100 µM. CCCCCOC(=O)c1c(C)[nH]c(/C=C2\N=C(c3ccc[nH]3)C=C2OC)c1C showed a GI50 of 0.0546 µM and a TGI of 1.32 µM. COc1cc(-c2csc(NC(=O)Nc3ccc(Cl)cc3)n2)cc(OC)c1OC was tested, and the GI50 was 2.96 µM and the TGI was 9.35 µM. With c1ccc2[nH]c(-c3ccc(Nc4nc(N5CCCC5)nc5[nH]ncc45)cc3)nc2c1 the GI50 was 0.277 µM and the TGI was 1.21 µM. C=CC(=O)N1CCN([C@@H](CC2CC2)c2ccc([C@H](C)Nc3ncc4c(n3)N(CC)C(=O)OC4)cc2)CC1 was tested, and the GI50 was 3.3 µM and the TGI was 13.8 µM. CN1CCN(c2cc(F)c(NC3=C(Cl)C(=O)c4ncccc4C3=O)c(F)c2)CC1 was tested, and the GI50 was 1.01 µM and the TGI was 2.61 µM. In the case of CC(=O)Nc1ccc(CC[C@H]2CCC/C=C/[C@@H]3C[C@H](O)C[C@H]3[C@H](O)/C=C/C(=O)O2)cc1, the GI50 was 0.0213 µM and the TGI was 0.0503 µM. For CCOc1ccc2nc3cc(N)ccc3c(N)c2c1, the GI50 was 0.268 µM and 0.135 µM and the TGI was 0.972 µM and 0.493 µM. COc1ccc(C2c3cc4c(cc3OC(N3CCOCC3)C2C)OCO4)cc1OC (configuration not stated) gave a GI50 of 7.56 µM and a TGI of over 100 µM. Nc1nc(N)c2cc(S(=O)(=O)c3cccc(C(F)(F)F)c3)ccc2n1 was tested, and the GI50 was 2.34 µM and the TGI was over 100 µM. With O=C(Nc1ccccc1/C=C/c1n[nH]c2ccccc12)c1ccccc1 the GI50 was 6.35 µM and the TGI was 20.4 µM. Work on CCCCCCCCCCCC(c1ccccc1)[N+](C)(C)C (configuration not stated) yielded a GI50 of 0.257 µM and a TGI of 1.35 µM. Compound CC(C)Cn1cnc2c(N)nc3ccccc3c21 has a GI50 of 12.4 µM and a TGI of over 62.1 µM. Clc1cccc(-c2cc(-c3ccc4c(c3)OCCO4)[nH]n2)c1 gave a GI50 of 10.9 µM and a TGI of 57.8 µM. CN1CCN(CCCOC(=O)c2c3c(n4ccccc24)C(=O)c2ncccc2C3=O)CC1 gave a GI50 of 1.88 µM and a TGI of 20.6 µM. In the case of CN1CCC2(CC1)C(=O)Nc1cc(NC(=O)c3ccc4c(c3)C[C@@H]3C(C)(C)[C@H](O)[C@H](F)C[C@@]3(C)O4)ccc12, the GI50 was 0.74 µM and the TGI was 11.7 µM. COc1cccc2c1C(=O)c1c(O)c3c(c(O)c1C2=O)C[C@@](O)(C(=O)CO)C[C@@H]3OC1CC(N2CCOCC2)C(O)C(C)O1 (some centres not stated) showed a GI50 of 0.0369 µM and a TGI of 0.216 µM. COc1ccc(-c2nn3ncccc3c2-c2ccnc(Nc3ccc(F)c(F)c3)n2)cc1 showed a GI50 of 6 µM and a TGI of over 18.9 µM. With Cc1cc(NC(=O)NCCCOc2ccc(N3C(N)=NC(N)=NC3(C)C)cc2Cl)ccc1S(=O)(=O)F the GI50 was 0.638 µM and the TGI was 19.7 µM. Cc1ccc(/C=C/C(=O)c2ccc(F)cc2)s1 showed a GI50 of 2.97 µM and a TGI of 16.4 µM. C=C(C)[C@@H]1CC[C@]2(C(=O)OC)CC[C@]3(C)[C@H](CC[C@@H]4[C@@](C)(CCc5nn[nH]n5)[C@H](C(=C)C)CC[C@]43C)[C@@H]12 gave a GI50 of 13.8 µM and a TGI of 36.4 µM.
